The values below are quoted from earlier work in US20070225544A1, “APPARATUSES AND TECHNIQUES FOR BIOACTIVE DRUG DELIVERY IN THE PROSTATE GLAND” (priority 2006, published 2007).

The subject of data set [1] is benign prostatic hypertrophy (BPH). The conditions noted are these: in vivo.

Regarding `CC(=O)OCC(=O)[C@@]1(O)CC[C@H]2[C@@H]3CCC4=CC(=O)CC[C@]4(C)[C@H]3[C@@H](O)C[C@@]21C` [Hydrocortisone acetate], the Duration entry (relative duration of action of injectable corticosteroid agent) is “Short”. In addition, under “relative potency of injectable corticosteroid agent”, the Potency entry is “Low”.
Turning to botulinum-toxin, in data set [1], the “decrease in urinary symptoms” value is on record as 30% and the “effective for up to ... in managing BPH” value is “up to 1 year”.
